Experimental data: patent US12409171B2, “Pharmaceutically active pyrazolo-pyridone modulators of DCN1/2-mediated cullin neddylation” (UNIVERSITY OF KENTUCKY RESEARCH FOUNDATION, priority 2019, dated 2025)

target: DCN1 (Homo sapiens (Human), UniProt Q96GG9); test: TR-FRET binding assay (biotin-DCN1 / Ac-UBE2M12-AlexaFluor488); conditions: mean ± SD (n); read-out: DCN1_TRFRET Mean EC50
Procedure: • IC50 values were generated using our TR-FRET binding assay and are represented as the mean of three replicates with errors reported as the standard deviation.
The assay cocktail was then incubated for 1 h at room temperature and distributed using a WellMate instrument (Matrix). Compounds to be screened were added to assay plates from DMSO stock solutions by pin transfer using 50SS pins (V&P Scientific). […] All compounds were tested in triplicate or more.

DCN1, sequence (Q96GG9 whole entry): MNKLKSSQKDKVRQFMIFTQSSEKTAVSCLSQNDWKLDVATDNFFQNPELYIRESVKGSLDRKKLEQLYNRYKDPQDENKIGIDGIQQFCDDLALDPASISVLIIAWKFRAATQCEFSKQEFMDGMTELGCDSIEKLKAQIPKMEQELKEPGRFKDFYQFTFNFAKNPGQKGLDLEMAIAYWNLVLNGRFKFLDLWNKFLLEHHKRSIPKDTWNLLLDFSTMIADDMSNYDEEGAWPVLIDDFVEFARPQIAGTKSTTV

Point of comparison: `CCN1C(=O)[C@@H](NC(=O)c2cccc(C)c2)[C@@H](c2ccc(F)cc2)c2c(C)nn(C3CC3)c21` [RG-0008872, N-[(4S,5S)-1-cyclopropyl-7-ethyl-4-(4-fluorophenyl)-3-methyl-6-oxo-1H,4H,5H,6H,7H-pyrazolo[3,4-b]pyridin-5-yl]-3-methylbenzamide], EC50 190 ± 35.6 nM. Against it:
- CCN1C(=O)[C@@H](NC(=O)c2cccc(C(F)(F)F)c2)[C@@H](c2ccc(F)cc2)c2c(C)nn(-c3cccc(C)c3)c21 [RG-0014035, N-[(4S,5S)-7-ethyl-4-(4-fluorophenyl)-3-methyl-1-(3-methylphenyl)-6-oxo-1H,4H,5H,6H,7H-pyrazolo[3,4-b]pyridin-5-yl]-3-(trifluoromethyl)benzamide] — 2-fold higher, 388 ± 38.5 nM
- CC(=O)NCN1C(=O)[C@@H](NC(=O)c2cccc(C(F)(F)F)c2)[C@@H](c2ccc(F)cc2)c2c(C)nn(-c3ccccc3)c21 [RG-0013840, N-[(4S,5S)-7-(acetamidomethyl)-4-(4-fluorophenyl)-3-methyl-6-oxo-1-phenyl-1H,4H,5H,6H,7H-pyrazolo[3,4-b]pyridin-5-yl]-3-(trifluoromethyl)benzamide] — higher, > 36500 nM
- CCN1C(=O)[C@@H](NC(=O)c2cccc(C(F)(F)F)c2)[C@@H](c2ccc(F)cc2)c2c(CNCCNC(=O)OC(C)(C)C)nn(-c3ccccc3)c21 [RG-0014142, tert-butyl N-[2-({[(4S,5S)-7-ethyl-4-(4-fluorophenyl)-6-oxo-1-phenyl-5-[3-(trifluoromethyl)benzamido]-1H,4H,5H,6H,7H-pyrazolo[3,4-b]pyridin-3-yl]methyl}amino)ethyl]carbamate] — 1.6-fold lower, 116 ± 17.5 nM
- CCN1C(=O)[C@@H](NC(=O)c2cccc(C(F)(F)F)c2)[C@@H](c2ccc(F)cc2)c2c(CNC(=O)CCOCCOCCOCCOCCNC(=O)CCCCC3SCC4NC(=O)NC43)nn(-c3ccccc3)c21 (stereo partly drawn) [RG-0014148, N-{[(4S,5S)-7-ethyl-4-(4-fluorophenyl)-6-oxo-1-phenyl-5-[3-(trifluoromethyl)benzamido]-1H,4H,5H,6H,7H-pyrazolo[3,4-b]pyridin-3-yl]methyl}-1-(5-{2-oxo-hexahydro-1H-thieno[3,4-d]imidazol-4-yl}pentanamido)-3,6,9,12-tetraoxapentadecan-15-amide] — 1.9-fold lower, 102 ± 15.9 nM
- CCN1C(=O)[C@@H](NC(=O)c2cccc(C(F)(F)F)c2)[C@@H](c2ccc(F)cc2)c2c(CN3CCN(C(=O)OC(C)(C)C)CC3)nn(-c3ccccc3)c21 [RG-0014059, tert-butyl 4-{[(4S,5S)-7-ethyl-4-(4-fluorophenyl)-6-oxo-1-phenyl-5-[3-(trifluoromethyl)benzamido]-1H,4H,5H,6H,7H-pyrazolo[3,4-b]pyridin-3-yl]methyl}piperazine-1-carboxylate] — within error, 231 ± 16.5 nM
- CCN1C(=O)[C@@H](NC(=O)c2cccc(C)c2)[C@@H](c2ccc(F)cc2)c2c(C)nn(-c3ccccc3F)c21 [RG-0008870, N-[(4S,5S)-7-ethyl-1-(2-fluorophenyl)-4-(4-fluorophenyl)-3-methyl-6-oxo-1H,4H,5H,6H,7H-pyrazolo[3,4-b]pyridin-5-yl]-3-methylbenzamide] — within error, 187 ± 5.73 nM
- CCN1C(=O)[C@@H](NC(=O)c2cccc(C)c2)[C@@H](c2ccc(F)cc2)c2c(C)nn(C3CCCC3)c21 [RG-0008878, N-[(4S,5S)-1-cyclopentyl-7-ethyl-4-(4-fluorophenyl)-3-methyl-6-oxo-1H,4H,5H,6H,7H-pyrazolo[3,4-b]pyridin-5-yl]-3-methylbenzamide] — 4.1-fold higher, 770 ± 76.1 nM
- CCC(C)n1nc(C)c2c1N(CC)C(=O)[C@@H](NC(=O)c1cccc(C)c1)[C@H]2c1ccc(F)cc1 (stereo partly drawn) [RG-0008861, N-[(4S,5S)-1-(butan-2-yl)-7-ethyl-4-(4-fluorophenyl)-3-methyl-6-oxo-1H,4H,5H,6H,7H-pyrazolo[3,4-b]pyridin-5-yl]-3-methylbenzamide] — 4.4-fold higher, 827 ± 371 nM
- CCN1C(=O)[C@@H](NC(=O)c2cc(C)cs2)[C@@H](c2ccc(F)cc2)c2c(C)nn(-c3ccccc3)c21 [RG-0014044, N-[(4S,5S)-7-ethyl-4-(4-fluorophenyl)-3-methyl-6-oxo-1-phenyl-1H,4H,5H,6H,7H-pyrazolo[3,4-b]pyridin-5-yl]-4-methylthiophene-2-carboxamide] — 4.1-fold higher, 785 ± 79.6 nM
- CCN1C(=O)[C@@H](NC(=O)c2cccc(OC)c2)[C@@H](c2ccc(F)cc2)c2c(C)nn(-c3ccccc3)c21 [RG-0013979, N-[(4S,5S)-7-ethyl-4-(4-fluorophenyl)-3-methyl-6-oxo-1-phenyl-1H,4H,5H,6H,7H-pyrazolo[3,4-b]pyridin-5-yl]-3-methoxybenzamide] — 3.3-fold higher, 629 ± 64.8 nM
- CCN1C(=O)[C@@H](NC(=O)c2cccc(C)c2)[C@@H](c2ccc(F)cc2)c2c(C)nn(CC)c21 [RG-0008869, N-[(4S,5S)-1,7-diethyl-4-(4-fluorophenyl)-3-methyl-6-oxo-1H,4H,5H,6H,7H-pyrazolo[3,4-b]pyridin-5-yl]-3-methylbenzamide] — 2-fold higher, 384 ± 30.6 nM
- Cc1nn(-c2ccccc2)c2c1[C@H](c1ccc(F)cc1)[C@H](NC(=O)c1cccc(C(F)(F)F)c1)C(=O)N2CCNC(=O)OC(C)(C)C [RG-0014162, tert-butyl N-{2-[(4S,5S)-4-(4-fluorophenyl)-3-methyl-6-oxo-1-phenyl-5-[3-(trifluoromethyl)benzamido]-1H,4H,5H,6H,7H-pyrazolo[3,4-b]pyridin-7-yl]ethyl}carbamate] — higher, > 13600 nM
- CCN1C(=O)[C@@H](NC(=O)c2cccc(C(F)(F)F)c2)[C@@H](c2ccc(F)cc2)c2c(CN3CCCC3)nn(-c3ccccc3)c21 [RG-0014154, N-[(4S,5S)-7-ethyl-4-(4-fluorophenyl)-6-oxo-1-phenyl-3-[(pyrrolidin-1-yl)methyl]-1H,4H,5H,6H,7H-pyrazolo[3,4-b]pyridin-5-yl]-3-(trifluoromethyl)benzamide] — 2.3-fold lower, 83.5 ± 9.39 nM
- CCN1C(=O)[C@@H](NC(=O)c2cccc(C)c2)[C@@H](c2ccc(F)cc2)c2c(C)nn(-c3ccc(F)cc3)c21 [RG-0008866, N-[(4S,5S)-7-ethyl-1,4-bis(4-fluorophenyl)-3-methyl-6-oxo-1H,4H,5H,6H,7H-pyrazolo[3,4-b]pyridin-5-yl]-3-methylbenzamide] — 2.6-fold higher, 489 ± 18.5 nM
- CCN1C(=O)[C@@H](NC(=O)c2cccc(C(F)(F)F)c2)[C@@H](c2ccc(F)cc2)c2c(CNS(=O)(=O)NC(=O)OC(C)(C)C)nn(-c3ccccc3)c21 [RG-0014160, tert-butyl N-({[(4S,5S)-7-ethyl-4-(4-fluorophenyl)-6-oxo-1-phenyl-5-[3-(trifluoromethyl)benzamido]-1H,4H,5H,6H,7H-pyrazolo[3,4-b]pyridin-3-yl]methyl}sulfamoyl)carbamate] — within error, 194 ± 19.9 nM
- CCN1C(=O)[C@@H](NC(=O)c2cccc(C(F)(F)F)c2)[C@@H](c2ccc(F)cc2)c2c(CNC)nn(-c3ccccc3)c21 [RG-0014056, N-[(4S,5S)-7-ethyl-4-(4-fluorophenyl)-3-[(methylamino)methyl]-6-oxo-1-phenyl-1H,4H,5H,6H,7H-pyrazolo[3,4-b]pyridin-5-yl]-3-(trifluoromethyl)benzamide] — 1.6-fold lower, 118 ± 9.03 nM
- CCN1C(=O)[C@@H](NC(=O)c2cccc([N+](=O)[O-])c2)[C@@H](c2ccc(F)cc2)c2c(C)nn(-c3ccccc3)c21 [RG-0013844, N-[(4S,5S)-7-ethyl-4-(4-fluorophenyl)-3-methyl-6-oxo-1-phenyl-1H,4H,5H,6H,7H-pyrazolo[3,4-b]pyridin-5-yl]-3-nitrobenzamide] — 10-fold higher, 1980 ± 134 nM
- CCN1C(=O)[C@@H](NC(=O)c2cccc(Oc3ccccc3)c2)[C@@H](c2ccc(F)cc2)c2c(C)nn(-c3ccccc3)c21 [RG-0013976, N-[(4S,5S)-7-ethyl-4-(4-fluorophenyl)-3-methyl-6-oxo-1-phenyl-1H,4H,5H,6H,7H-pyrazolo[3,4-b]pyridin-5-yl]-3-phenoxybenzamide] — 31-fold higher, 5930 ± 606 nM
- CCCn1nc(C)c2c1N(C)C(=O)[C@@H](NC(=O)c1cccc(C)c1)[C@H]2c1ccc(F)cc1 [RG-0007411, N-[(4S,5S)-4-(4-fluorophenyl)-3,7-dimethyl-6-oxo-1-propyl-1H,4H,5H,6H,7H-pyrazolo[3,4-b]pyridin-5-yl]-3-methylbenzamide] — 3.1-fold higher, 585 ± 106 nM
- CCN1C(=O)[C@@H](NC(=O)c2cccc(C(F)(F)F)c2)[C@@H](c2ccc(F)cc2)c2c(CN3CCC(F)CC3)nn(-c3ccccc3)c21 [RG-0014147, N-[(4S,5S)-7-ethyl-4-(4-fluorophenyl)-3-[(4-fluoropiperidin-1-yl)methyl]-6-oxo-1-phenyl-1H,4H,5H,6H,7H-pyrazolo[3,4-b]pyridin-5-yl]-3-(trifluoromethyl)benzamide] — 1.7-fold lower, 112 ± 16 nM
- CCN1C(=O)[C@@H](NC(=O)c2cccc(S(C)(=O)=O)c2)[C@@H](c2ccc(F)cc2)c2c(C)nn(-c3ccccc3)c21 [RG-0013977, N-[(4S,5S)-7-ethyl-4-(4-fluorophenyl)-3-methyl-6-oxo-1-phenyl-1H,4H,5H,6H,7H-pyrazolo[3,4-b]pyridin-5-yl]-3-methanesulfonylbenzamide] — higher, > 36500 nM
- CCN1C(=O)[C@@H](NC(=O)C(C)(C)C)[C@@H](c2ccc(F)cc2)c2c(C)nn(-c3ccccc3)c21 [RG-0014063, N-[(4S,5S)-7-ethyl-4-(4-fluorophenyl)-3-methyl-6-oxo-1-phenyl-1H,4H,5H,6H,7H-pyrazolo[3,4-b]pyridin-5-yl]-2,2-dimethylpropanamide] — higher, > 36500 nM
- CCN1C(=O)[C@@H](NC(=O)c2ccc3c(ccn3C)c2)[C@@H](c2ccc(F)cc2)c2c(C)nn(-c3ccccc3)c21 [RG-0014151, N-[(4S,5S)-7-ethyl-4-(4-fluorophenyl)-3-methyl-6-oxo-1-phenyl-1H,4H,5H,6H,7H-pyrazolo[3,4-b]pyridin-5-yl]-1-methyl-1H-indole-5-carboxamide] — 17-fold higher, 3230 ± 806 nM
- Cc1nn(-c2ccccc2)c2c1[C@H](c1ccc(F)cc1)[C@H](NC(=O)c1cccc(C(F)(F)F)c1)C(=O)N2C [RG-0008885, N-[(4S,5S)-4-(4-fluorophenyl)-3,7-dimethyl-6-oxo-1-phenyl-1H,4H,5H,6H,7H-pyrazolo[3,4-b]pyridin-5-yl]-3-(trifluoromethyl)benzamide] — 5-fold higher, 943 ± 86.3 nM
